Where a chain is given by its changes, count along the chain named.

The test system of series [1] is immature castrated rats. As to conditions: cited from earlier work; for EC50 (increase in organ weight): immature castrated rats, dosing for 3 days.
Another series deals with T1, wild type AR (Homo sapiens, UniProt P10275).
T1 sequence (P10275 1-920 Q868H): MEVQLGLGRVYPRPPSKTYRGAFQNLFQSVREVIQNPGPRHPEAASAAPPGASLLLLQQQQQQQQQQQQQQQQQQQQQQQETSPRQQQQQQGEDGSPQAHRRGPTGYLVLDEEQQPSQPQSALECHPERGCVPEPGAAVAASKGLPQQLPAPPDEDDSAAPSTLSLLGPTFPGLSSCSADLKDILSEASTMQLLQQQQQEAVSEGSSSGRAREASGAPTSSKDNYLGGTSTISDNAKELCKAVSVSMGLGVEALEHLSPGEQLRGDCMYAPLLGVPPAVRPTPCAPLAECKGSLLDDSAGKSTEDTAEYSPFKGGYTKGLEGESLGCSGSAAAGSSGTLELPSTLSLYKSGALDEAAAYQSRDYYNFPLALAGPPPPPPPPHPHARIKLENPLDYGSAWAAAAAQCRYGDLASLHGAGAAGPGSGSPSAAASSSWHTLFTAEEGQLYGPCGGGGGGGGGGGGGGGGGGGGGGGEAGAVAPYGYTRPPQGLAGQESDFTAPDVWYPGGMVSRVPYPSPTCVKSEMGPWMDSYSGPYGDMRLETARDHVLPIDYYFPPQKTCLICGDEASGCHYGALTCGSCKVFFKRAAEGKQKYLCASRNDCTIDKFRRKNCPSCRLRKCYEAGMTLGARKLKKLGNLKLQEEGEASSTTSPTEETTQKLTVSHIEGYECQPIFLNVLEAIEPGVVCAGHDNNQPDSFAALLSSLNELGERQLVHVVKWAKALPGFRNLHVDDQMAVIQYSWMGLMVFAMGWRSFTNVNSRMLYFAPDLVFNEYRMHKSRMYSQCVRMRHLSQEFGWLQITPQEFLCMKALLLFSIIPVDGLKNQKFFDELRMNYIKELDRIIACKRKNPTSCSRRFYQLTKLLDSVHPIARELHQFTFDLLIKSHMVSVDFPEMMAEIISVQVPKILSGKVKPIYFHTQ
Put plainly: AR Binding Assay (whole cell, MDA-MB-453, competition with [3H]-DHT). As to conditions: MDA-MB-453 cells, competition with 2 nM [3H]-DHT, Cheng-Prusoff. As for the experimental part: For the whole cell binding assay, human breast adenocarcinoma MDA-MB-453 cells (American Type Culture Collection, Rockville, Md., ATCC #: HTB-131), expressing a functional endogenous wild type AR, are grown to near confluency in T-225 tissue culture flasks containing Dulbecco's Modified Eagle Medium (DMEM) (Mediatech CAT #45000-668) supplemented with 10% fetal bovine serum (FBS) (Invitrogen/GIBCO Life Science). In order to remove any endogenous ligand that might be complexed with the receptor in the cells, the tissue culture media is removed and the cells are incubated overnight at 37° C. in serum-free DMEM. The next day, cells are rinsed with magnesium and calcium free Phosphate Buffered Saline (PBS) (Invitrogen/GIBCO Life Science), harvested using Cell Stripper Buffer (Mediatech) and re-suspended in serum-free DMEM to achieve a final assay concentration of 4×10^5 cells/well of a 96-well assay plate. […] After the remaining media is removed, cells are washed three times with PBS and harvested onto UniFilter GF/B plates (PerkinElmer).
Two replicates are used for each sample. After 90 minutes at room temperature, cells are harvested by filtering through a GF/B filter plate (PerkinElmer) followed by washing with ice-cold 1×PBS (without calcium and magnesium) to remove unbound label. […] After correcting for non-specific binding, IC50 values are determined. The IC50 value is defined as the concentration of competing ligand needed to reduce specific binding by 50%. […] The Ki values are determined by application of the Cheng-Prusoff equation to the IC50 values where: […]
See e.g., D. Rodbard, Mathematics and Statistics of Ligand Assays: An Illustrated Guide: In: J. Langon and J. J. Clapp, eds., Ligand Assay, Masson Publishing U.S.A., Inc., New York, pp. 45-99 (1981).

The target in the next series is T2, androgen receptor (AR) (Homo sapiens, UniProt P10275).
T2 sequence (P10275 1-920): T1 sequence (P10275 1-920 Q868H) with H868Q
Put plainly: MDA-MB-453 Androgen Receptor Transactivation Assay. It is filed as cell-based. The conditions noted are these: MDA-MB-453 cells, PSA-Luc reporter, 3 nM DHT, 48 hour incubation. The source says:
Compounds can be tested in a cell based transactivation assay used to measure the antagonism of androgen receptor (AR) transcriptional activity. […] The human breast adenocarcinoma MDA-MB-453 cell line (American Type Culture Collection, Rockville, Md., ATCC#: HTB-131), expressing a functional endogenous wild type AR, was transiently transfected with a reporter plasmid and tested for AR dependent transactivation activity in the absence or presence of test compounds. The pGL3 PSA-Luc reporter plasmid is comprised of the cDNA for the firefly luciferase gene and the upstream promoter sequences containing the androgen response elements (AREs) of the prostate specific antigen (PSA). This plasmid functions as a reporter for the transcription-modulating activity of the AR. In order to detect antagonists, the transactivation assay is conducted in the presence of constant concentration of the natural AR hormone (DHT) to induce a defined reporter signal. Addition of increasing concentrations of the suspected antagonist will decrease the reporter signal (luciferase activity).
MDA-MB-453 and 22 RV1 cells were maintained in DMEM (Cellgro, Cat. #10-014-CM) or RPMI 1640 (Gibco Cat. #11875-085) respectively and supplemented with 10% FBS (Invitrogen/GIBCO Life Science). Cells were bulk transfected in flasks with 1.3 ug/ml pGL3 PSA-Luc plasmid by using the Lipofectamine 2000 Reagent (Invitrogen, Cat. #11668-019) and serum-free Opti-MEM I media (Invitrogen, Cat#31985-070) according to the manufacturer's optimized conditions. Transfection was conducted at 37° C. with 5% CO2 for 16-18 hours. Following transfection, cells are washed, treated with trypsin, counted, and seeded in a 96-well plate at 30,000 cells per well in DMEM containing 10% Charcoal/Dextran Treated Fetal Bovine Serum (Gibco Cat. #11054-020) for MDA-MB-453 cells or RPMI 1640 (Gibco Cat. #110835) containing 10% FBS (Invitrogen/GIBCO Life Science) for 22 RV1 cells.
Following transfection, cells were incubated in the absence (blank) or presence (control) of 3 nM DHT (Sigma, Cat. #A-8380) and in the presence or absence of the standard antiandrogen bicalutamide or test compounds ranging in concentrations from 10^−10 to 10^−5M. Duplicates were used for each sample. The compound dilutions were performed by the Tecan Genesis (Tecan, Triangle Park, N.C.). After a 48 hour incubation, luciferase activity was measured using the Steady-Glo Luciferase Assay System (Promega, Cat. #E2550) according to manufacturer's specifications and luminescence was measured on a Packard TopCount (PerkinElmer). For each luciferase sample reading, the percent control (in absence of compounds) was calculated as: % Control=100×[averagesample−averageblank]/[averagecontrol−averageblank] Data was plotted and the IC50 value was defined as the concentration of compound that inhibited 50% of the luciferase activity for the controls.

Series [2] concerns immature castrated rats. The experiment in a line: Immature Rat Prostate Weight (IRPW) Assay. It is filed as in vivo. The conditions noted are these: TP versus free T. The source says: The activity of compounds of Formula (I) as AR antagonists can be investigated in an immature male rat model, as described in L. G. Hershberger et al., Proc. Soc.
Male sexual accessory organs, such as the prostate and seminal vesicles, play an important role in reproductive function. These glands are stimulated to grow and are maintained in size and secretory function by the continued presence of serum testosterone (T), which is the major serum androgen (>95%) produced by the Leydig cells in the testis under the control of the pituitary luteinizing hormone (LH) and follicle stimulating hormone (FSH). […] Adrenal androgens also contribute about 20% of total DHT in the rat prostate, compared to 40% of that in 65-year-old men. […] However, this is not a major pathway, since in both animals and humans, castration leads to almost complete involution of the prostate and seminal vesicles without concomitant adrenalectomy. […] […] […] Since the male sex organs are the tissues most responsive to modulation of the androgen activity, this model is used to determine the androgen dependent growth of the sex accessory organs in immature castrated rats.
Male immature rats (19-20 days old Sprague-Dawley, Harlan Sprague-Dawley) are castrated under metofane anesthesia. […] Experimental groups are as follows:
At the end of the 3-day treatment, the animals are sacrificed, and the ventral prostate weighed. […]

On to `C[C@]12CC[C@H]3[C@@H](CCC4=CC(=O)CC[C@@]43C)[C@@H]1CC[C@@H]2O` [T, testosterone], for which the “serum concentrations of T and DHT relative to that of TP” value in the series with immature castrated rats [1] (2 hours after subcutaneous injection) is on record as 5 times. The “EC50 (increase in organ weight)” value with immature castrated rats [1] is listed as “about 1 mg”.
Turning to `N#Cc1ccc(N2C[C@H]3[C@H]([C@H]4O[C@@H]3C[C@H]4F)S2(=O)=O)cc1C(F)(F)F` [Example 14, 4-((1S,2R,6R,7R,9R)-9-fluoro-3,3-dioxido-10-oxa-3-thia-4-azatricyclo[5.2.1.0^2,6]dec-4-yl)-2-(trifluoromethyl)benzonitrile], affinity at wild type AR was put at a Ki of 11 nM. The IC50 (as a rule, the concentration that inhibits the measured activity by half) on androgen receptor (AR) is 144 nM.
Regarding `CCC(=O)O[C@H]1CC[C@H]2[C@@H]3CCC4=CC(=O)CC[C@]4(C)[C@H]3CC[C@]12C` [TP, testosterone propionate], the “EC50 (increase in organ weight)” value with immature castrated rats [1] was around 0.03 mg. Also, the “potency relative to free T” value with immature castrated rats [2] is 10-30 fold.
As to `N#Cc1ccc(N2CC3C([C@@H]4CC[C@H]3O4)S2(=O)=O)cc1C(F)(F)F` (stereo in doubt) [Example 6, 4-((1S,2R,6R,7R)-3,3-dioxido-10-oxa-3-thia-4-azatricyclo[5.2.1.0^2,6]dec-4-yl)-2-(trifluoromethyl)benzonitrile], on wild type AR, the affinity corresponds to a Ki of 23 nM. Besides, it took 198 nM to reach half-maximal inhibition at androgen receptor (AR) (IC50).
For `C[C@]12C=C[C@H](O1)[C@@H]1[C@H]2CN(c2ccc(C#N)c(C(F)(F)F)c2)S1(=O)=O` (racemic) [Example 21i, rac-4-((1R,2R,6R,7S)-7-methyl-3,3-dioxido-10-oxa-3-thia-4-azatricyclo[5.2.1.0^2,6]dec-8-en-4-yl)-2-(trifluoromethyl)benzonitrile], in that order: 173 nM and 1160 nM.
The corresponding values for `N#Cc1ccc(N2C[C@H]3[C@@H]4O[C@@H](C[C@H]4O)[C@H]3S2(=O)=O)cc1C(F)(F)F` (racemic) [Example 10iii] are 568 nM and 8320 nM.

The record behind these values is patent publication US8466171B2, “Fused heterocyclic compounds useful as modulators of nuclear hormone receptor function” (Bristol-Myers Squibb Company, priority 2007, dated 2013).
